Patent US7192746B2, “α-Isomaltosyltransferase, process for producing the same and use thereof” (Kabushiki Kaisha Hayashibara Seibutsu Kagaku Kenkyujo, priority 2000, dated 2007)

Legend:
[1] = pH stability; format: physicochemical; conditions: 4% (w/v), 100° C., 24 hours; for Purity: HPLC
Description: Eight milliliters of each solution was placed in a glass test tube, followed by sealing the test tube and heating the solution at 100° C. for 24 hours. After cooling under atmospheric conditions, each solution was measured for coloration degree and determined for purity on HPLC. The coloration degree was evaluated based on the absorbance in a cell with a 1-cm light pass at a wavelength of 480 nm.

[2] = test system: Lactobacillus acidophilus JCM 1132 strain; assay: Assimilation test; format: cell-based; conditions: PYF medium with 0.5% saccharide, 37° C., four days, anaerobic

OCC1OC2OCC3O[C@H](O[C@H]4C(O)C(CO)OC(OCC5O[C@H](O[C@@H](C1O)C2O)C(O)C(O)[C@@H]5O)C4O)C(O)C(O)[C@@H]3O (stereo partly drawn) [Cyclotetrasaccharide, cyclo{→6)-α-D-glucopyranosyl-(1→3)-α-D-glucopyranosyl-(1→6)-α-D-glucopyranosyl-(1→3)-α-D-glucopyranosyl-(1→}]
Coloration degree (A480 nm) ([1]; pH 2.0 (Acetate buffer)): 0.00 | Purity ([1]; pH 2.0 (Acetate buffer)): 93% | Coloration degree (A480 nm) ([1]; pH 3.0 (Acetate buffer)): 0.00 | Purity ([1]; pH 3.0 (Acetate buffer)): 100% | Coloration degree (A480 nm) ([1]; pH 4.0 (Acetate buffer)): 0.00 | Purity ([1]; pH 4.0 (Acetate buffer)): 100% | Coloration degree (A480 nm) ([1]; pH 5.0 (Acetate buffer)): 0.00 | Purity ([1]; pH 5.0 (Acetate buffer)): 100% | Coloration degree (A480 nm) ([1]; pH 6.0 (Tris-HCl buffer)): 0.00 | Purity ([1]; pH 6.0 (Tris-HCl buffer)): 100% | Coloration degree (A480 nm) ([1]; pH 7.0 (Tris-HCl buffer)): 0.00 | Purity ([1]; pH 7.0 (Tris-HCl buffer)): 100% | Coloration degree (A480 nm) ([1]; pH 8.0 (Tris-HCl buffer)): 0.00 | Purity ([1]; pH 8.0 (Tris-HCl buffer)): 100% | Coloration degree (A480 nm) ([1]; pH 9.0 (Ammonium buffer)): 0.00 | Purity ([1]; pH 9.0 (Ammonium buffer)): 100% | Coloration degree (A480 nm) ([1]; pH 10.0 (Ammonium buffer)): 0.00 | Purity ([1]; pH 10.0 (Ammonium buffer)): 100% | Assimilability [2]: − (negative (−) when the post culture had a pH of 6.0 or higher)
